Assays:
[1] = system: ubiquitous microbial cultures collected from common household and mammalian sources; test: filter disc incubation with streak-inoculated microbial cultures; format: cell-based; details: filter discs impregnated by aqueous saturation, incubated with the cultures
Method: Initial comparative studies were conducted in an effort to validate the antimicrobial activities of cupric compounds, wherein ubiquitous microbial cultures were collected from common household and mammalian sources and isolated in identifiable colonies by streak inoculation.

foot odor [2] = test: efficacy duration study, twenty-six persons, right vs left footwear, olfactory evaluation; format: in vivo, human; details: for olfactory evaluation of footwear and feet: three days following administration
Method: Thereafter, to test the efficacy duration of the preferred mixture and concentration of the present invention, a study was conducted of twenty-six persons, male and female, ranging in ages from 7-71 years, all presenting with foul and distressing foot odor. These twenty-six persons had all of their “right-side” footwear treated with 1-1.25 g of cupric carbonate and their “left-side” footwear with 1-1.25 g sodium bicarbonate. Three days following administration, each shoe worn and both feet of each participant were evaluated via olfactory sense. Evaluation results were the same, without exception, for all participants.

foot odor [3] = test: initial empirical use studies in footwear
Excerpt: Initial empirical use studies involved finely divided elemental copper powder.

foot odor [4] = test: dosing specification study, organoleptic odor evaluation, six volunteers; format: in vivo, human; details: for organoleptic odor evaluation: after three, 10 and 30 days
Method: Dosing specification studies were conducted in order to define a preferred minimum quantity for preferred use; although mindful of the differences in performance, more or less than the preferred minimum quantity could be utilized in alternate compositions. Initial test dosing was approximately 3.5 to 4.0 grams dispersed within each shoe, with excess bumped out through the footwear opening.
In the study, six volunteer participants with confirmed and self-recognized foot odor participated in trials to establish preferred upper and lower specification ranges. […] The left shoes were treated in a variable fashion, from an initial 3.5 gram dose to a final dose of 0.5 grams, via 0.5 gram increments. An organoleptic evaluation was performed by each test subject, and also be the inventor, after three days, 10 days, and 30 days of treatment for each dose.

`CC(=O)[O-].CC(=O)[O-].[Cu+2]` [acetate solution, cupric acetate] was tested, and the antimicrobial properties [1] was “confirming the existence of antimicrobial properties”.

With `O=C([O-])O.[Na+]` [sodium bicarbonate, reference compound] the “olfactory evaluation of footwear and feet” value (foot odor [2]; 1-1.25 g per shoe) was “no obvious change in degree of unpleasant odor”.

For cupric carbonate, CuCO3.Cu(OH)2, the “olfactory evaluation of footwear and feet” value (foot odor [2]; 1-1.25 g per shoe) was “no detectable hint of unpleasantness”, the duration of effectiveness (foot odor [2]; 1-1.25 g per shoe, in many cases twelve months or more) was “at least six” and the effectiveness (foot odor [2]; for at least six months) was about 100%. For the same compound, the contact dermatitis (foot odor [3]; in vivo) was “contact dermatitis was completely eliminated”, the antimicrobial properties [1] was “confirming the existence of antimicrobial properties” and the “efficacy against foot odor in earlier testing” value (foot odor [4]; 4.0 gram dosing, positive control, right shoe) was “shown the efficacy”. For the same compound, the organoleptic odor evaluation (foot odor [4]; dosed at or above 1.5 grams per shoe) was “no detectable trace of odor beyond that of damp footwear” and the organoleptic odor evaluation (foot odor [4]; dosed at or below 1.0 gram per shoe) was “some malodorous relief, but for a more limited period of time”.

In the case of cupric chloride, the contact dermatitis (foot odor [3]; use in footwear) is reported as “varying degrees of contact dermatitis”.

Source: patent US20080220065A1, “Compositions for treating foot odor and methods of use thereof” (priority 2007, published 2008)
